1 compound from patent publication US8426396B2, “Treatment for achondroplasia” (Shriners Hospitals for Children, priority 2008, dated 2013) can be followed below.

Where a SMILES comes first, the peptide text is derived from it. The star is where a group is joined. Cbz = O=C(OCc1ccccc1)*

This assay concerns TDII FGFR3. The assay is described as follows: Proteasome inhibition in cells expressing TDII FGFR3 (immunoblot). Type of assay: cell-based, mouse. Particulars: 17-AAG-induced decrease, FIG. 11. From the text:
The two FGFR3 bands reflect glycosylation differences.
A general note: In western blotting, separated proteins are transferred to a membrane and probed.

In the case of `CC(C)C[C@@H](C=O)NC(=O)[C@H](CC(C)C)NC(=O)[C@H](CC(C)C)NC(=O)OCc1ccccc1` [MG132] (Cbz-Leu-Leu-Leu-aldehyde), the “TDII FGFR3 degradation” value is “decreased TDII FGFR3 degradation”.
